Results on seven compounds are retold here after patent US4024276A, “Xanthone-2-carboxylic acid compounds” (Roussel-UCLAF, priority 1974, dated 1977).

The first assay deals with cutaneous anaphylaxis. Briefly: Passive cutaneous anaphylaxis in rats (method of Ovary), anti-allergic activity. Type of assay: in vivo, rat. Particulars: Rattus norvegicus; male rats 180-220 g; intravenous, followed immediately by antigen/Evans blue challenge; anti-ovalbumin antiserum ID 3 days before; compounds used as tris(hydroxymethyl)methylamine salts; read-out: ED50 (dose of drug giving 50% inhibition). The method, then: Evans blue dye was injected with the antigen to act as a marker to assess the severity of the local response which is inhibited by anti-allergic compounds. Groups of 7 male rats weighing 180 to 220 g were used in this test.
Preparation of antigen for sensitization (such as alum precipitated ovalbumin) was effected by washing 120 grams of Al(OH)3 gel in 140 mls of saline solution (use of a macerator facilitates mixing). Then, the product was centrifuged at 3,000 r.p.m. for about 10 minutes and the precipitate was responded with 300 mls of albumin egg powder (1.3 mg/ml) in saline solution and allowed to stand for 30 minutes. Then, the mixture was centrifuged at 3,000 r.p.m. for 10 minutes and the wet precipitate was weighed and to each gram weight 1 ml of saline solution was added. The antigen was stored in the refrigerator and was a quantity sufficient for 60 rats for a 3 day sensitization program.
Preparation of antiserum (such as anti-ovalbumin) was effected by injecting 1 ml of the alum precipitated ovalbumin subcutaneously into the rats on days 0, 2 and 4. The rats were bled on day 14 either by cardiac puncture or via the dorsal abdominal aorta and equal quantities of serum from each animal were pooled and thoroughly mixed. 2 ml aliquots were stored at -20° C in plastic tubes.
For sensitization, rats were anaesthetized with Nembutal (40-60 mg/kg i.p.) and were then sensitized by four ID injections (0.1 ml each) on their shaved backs. The animals were then left for a period of three days to develop sensitization.
For the challenge, the sensitized rats were anaesthetized and challenged intravenously via the superficial penile vein with the anti-allergic compound, followed immediately by 1 ml of an antigen/Evans blue mixture (1 mg albumin egg powder in 0.5 ml saline solution plus 0.5 ml of 1% Evans blue). The injections were speeded up by using an automatic 1 ml self filling glass syringe. The "challenged" rats were killed after 30 minutes and their skin on the dorsal surface was removed. The degree and area of blueing, proportional to the anaphylactic reaction, was assessed on a four point scoring system as follows:
1. Total scores for sites, 1, 2, 3 and 4 = X
2. Mean value of X for each group = X
3. X t = X for test group X c = X for control group [formula]
In the case of `CCCCCCc1cc(S(C)(=O)=NC(N)=O)cc2c(=O)c3cc(C(=O)O)ccc3oc12` (stereo not shown) [7-(N-carbamoyl-S-methylsulfonimidoyl)-5-(n-hexyl)-xanthone-2-carboxylic acid], the ED50 is 0.008 mg/kg.

Turning to `CCCCCOc1cc(S(C)(=N)=O)cc2c(=O)c3cc(C(=O)O)ccc3oc12` (stereo not shown) [7-(S-methylsulfonimidoyl)-5-(n-pentyloxy)-xanthone-2-carboxylic acid], the ED50 is 0.0035 mg/kg.

For `Cc1ccc(S(=O)(=O)N=S(C)c2ccc3oc4ccc(C(=O)O)cc4c(=O)c3c2)cc1` (stereo not shown) [7-[N-(p-toluenesulfonyl)-S-methylsulfimidoyl]-xanthone-2-carboxylic acid], the ED50 was found to be 0.43 mg/kg.

As for `CC(=O)N=S(C)(=O)c1ccc2oc3ccc(C(=O)O)cc3c(=O)c2c1` (stereo not shown) [7-(N-acetyl-S-methylsulfonimidoyl)-xanthone-2-carboxylic acid], the ED50 was determined as 0.065 mg/kg.

Consider `CCCCCCc1cc(S(C)(=N)=O)cc2c(=O)c3cc(C(=O)O)ccc3oc12` (stereo not shown) [7-(S-methylsulfonimidoyl)-5-(n-hexyl)-xanthone-2-carboxylic acid], for which the ED50 is 0.0028 mg/kg.

In the case of `CS(=O)(=NC(=O)c1ccccc1)c1ccc2oc3ccc(C(=O)O)cc3c(=O)c2c1` (stereo not shown) [7-(N-benzoyl-S-methylsulfonimidoyl)-xanthone-2-carboxylic acid], the ED50 was determined as 0.68 mg/kg.

The assay is the same for the next values; noted with them: male rats 180-220 g; intravenous, followed immediately by antigen/Evans blue challenge; anti-ovalbumin antiserum ID 3 days before; compounds used as tris(hydroxymethyl)methylamine salts.
Regarding `CS(=N)(=O)c1ccc2oc3ccc(C(=O)O)cc3c(=O)c2c1` (stereo not shown) [7-(S-methylsulfonimidoyl)-xanthone-2-carboxylic acid], the “ED50 (dose of drug giving 50% inhibition)” value turned out to be 0.033 mg/kg.
